Measured values published in patent publication US20120171531A1, “REDOX FLOW BATTERY” (Samsung Electronics Co., Ltd., priority 2010, published 2012).

Assay: Viscosity of prepared electrolyte solution, Rheometer (AR2000)
Assay type: physicochemical
Settings: solvent PC
Method: The solubilities of each metal-ligand coordination compound obtained in Preparation Examples 1 through 3 in solvents and viscosity of prepared electrolyte solutions were measured and the results are shown in Table 1. Viscosities were measured using a Rheometer (AR2000).

Row | SMILES | Viscosity (cps)
1 | F[B-](F)(F)F.F[B-](F)(F)F.[Fe+2].c1ccc(-c2ccccn2)nc1.c1ccc(-c2ccccn2)nc1.c1ccc(-c2ccccn2)nc1 [Preparation Example 1, Fe^2+—(bpy)3 [BF4]2] | 4.8
2 | F[B-](F)(F)F.F[B-](F)(F)F.[Ni+2].c1ccc(-c2ccccn2)nc1.c1ccc(-c2ccccn2)nc1.c1ccc(-c2ccccn2)nc1 [Preparation Example 2, Ni^2+—(bpy)3 [BF4]2] | 4.9
